Results published in PubChem BioAssay (NCI).
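GI50 marks 50% less growth. TGI: total growth inhibition.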

How the values were obtained:
Assay in all cases: NCI-60 cell line screen, 384-well format; in the data active means GI50 below about 0.43 µM; inactive means the rest
786-0 renal = system: 786-0 renal
A498 renal = system: A498 renal
A549 NSCLC = system: A549 NSCLC
ACHN renal = system: ACHN renal
BT-549 breast = system: BT-549 breast
CAKI-1 renal = system: CAKI-1 renal
CCRF-CEM leukemia = system: CCRF-CEM leukemia
COLO 205 colon = system: COLO 205 colon
EKVX NSCLC = system: EKVX NSCLC
HCC-2998 colon = system: HCC-2998 colon
HCT-116 colon = system: HCT-116 colon
HL-60(TB) leukemia = system: HL-60(TB) leukemia
HOP-62 NSCLC = system: HOP-62 NSCLC
HOP-92 NSCLC = system: HOP-92 NSCLC
HS 578T breast = system: HS 578T breast
HT29 colon = system: HT29 colon
K-562 leukemia = system: K-562 leukemia
LOX IMVI melanoma = system: LOX IMVI melanoma
M14 melanoma = system: M14 melanoma
MALME-3M melanoma = system: MALME-3M melanoma
MCF7 breast = system: MCF7 breast
MDA-MB-231 breast = system: MDA-MB-231 breast
MDA-MB-435 melanoma = system: MDA-MB-435 melanoma
NCI-H226 lung = system: NCI-H226 lung
NCI-H23 lung = system: NCI-H23 lung
NCI-H322M lung = system: NCI-H322M lung
NCI-H460 NSCLC = system: NCI-H460 NSCLC
NCI-H522 lung = system: NCI-H522 lung
NCI/ADR-RES ovarian = system: NCI/ADR-RES ovarian
OVCAR-3 ovarian = system: OVCAR-3 ovarian
OVCAR-5 ovarian = system: OVCAR-5 ovarian
OVCAR-8 ovarian = system: OVCAR-8 ovarian
PC-3 prostate = system: PC-3 prostate
RPMI-8226 leukemia = system: RPMI-8226 leukemia
RXF 393 renal = system: RXF 393 renal
SF-268 CNS = system: SF-268 CNS
SF-539 CNS = system: SF-539 CNS
SK-MEL-2 melanoma = system: SK-MEL-2 melanoma
SK-MEL-28 melanoma = system: SK-MEL-28 melanoma
SK-MEL-5 melanoma = system: SK-MEL-5 melanoma
SK-OV-3 ovarian = system: SK-OV-3 ovarian
SNB-19 CNS = system: SNB-19 CNS
SW-620 colon = system: SW-620 colon
T-47D breast = system: T-47D breast
TK-10 renal = system: TK-10 renal
UACC-62 melanoma = system: UACC-62 melanoma
UO-31 renal = system: UO-31 renal

Cc1ncsc1-c1ccc(CNC(=O)[C@@H]2C[C@@H](O)CN2C(=O)[C@@H](NC(=O)C2(C#N)CC2)C(C)(C)C)cc1
inactive: GI50 ([…]-0 renal) > 100 µM | GI50 (A498 renal) > 100 µM | GI50 (A549 NSCLC) > 100 µM | GI50 (ACHN renal) > 100 µM | GI50 (BT-549 breast) > 100 µM | GI50 (CAKI-1 renal) > 100 µM | GI50 (CCRF-CEM leukemia) > 100 µM | GI50 (COLO 205 colon) > 100 µM | GI50 (EKVX NSCLC) > 100 µM | GI50 (HCC-2998 colon) > 100 µM | GI50 (HCT-116 colon) > 100 µM | GI50 (HL-60(TB) leukemia) > 100 µM | GI50 (HOP-62 NSCLC) > 100 µM | GI50 (HOP-92 NSCLC) > 100 µM | GI50 (HS 578T breast) > 100 µM | GI50 (HT29 colon) > 100 µM | GI50 (K-562 leukemia) > 100 µM | GI50 (LOX IMVI melanoma) > 100 µM | GI50 (M14 melanoma) > 100 µM | GI50 (MALME-3M melanoma) > 100 µM | GI50 (MCF7 breast) > 100 µM | GI50 (MDA-MB-231 breast) > 100 µM | GI50 (MDA-MB-435 melanoma) > 100 µM | GI50 (NCI-H226 lung) > 100 µM | GI50 (NCI-H23 lung) > 100 µM | GI50 (NCI-H322M lung) > 100 µM | GI50 (NCI-H460 NSCLC) > 100 µM | GI50 (NCI-H522 lung) > 100 µM | GI50 (NCI/ADR-RES ovarian) > 100 µM | GI50 (OVCAR-3 ovarian) > 100 µM | GI50 (OVCAR-5 ovarian) > 100 µM | GI50 (OVCAR-8 ovarian) > 100 µM | GI50 (PC-3 prostate) > 100 µM | GI50 (RPMI-8226 leukemia) 46.7 µM | GI50 (RXF 393 renal) > 100 µM | GI50 (SF-268 CNS) 99.7 µM | GI50 (SF-539 CNS) > 100 µM | GI50 (SK-MEL-2 melanoma) > 100 µM | GI50 (SK-MEL-28 melanoma) > 100 µM | GI50 (SK-MEL-5 melanoma) > 100 µM | GI50 (SK-OV-3 ovarian) > 100 µM | GI50 (SNB-19 CNS) > 100 µM | GI50 (SW-620 colon) > 100 µM | GI50 (T-47D breast) > 100 µM | GI50 (TK-10 renal) > 100 µM | GI50 (UACC-62 melanoma) > 100 µM | GI50 (UO-31 renal) > 100 µM
> 90.7 µM: TGI (RPMI-8226 leukemia)
> 100 µM: TGI (786-0 renal) | TGI (A498 renal) | TGI (A549 NSCLC) | TGI (ACHN renal) | TGI (BT-549 breast) | TGI (CAKI-1 renal) | TGI (CCRF-CEM leukemia) | TGI (COLO 205 colon) | TGI (EKVX NSCLC) | TGI (HCC-2998 colon) | TGI (HCT-116 colon) | TGI (HL-60(TB) leukemia) | TGI (HOP-62 NSCLC) | TGI (HOP-92 NSCLC) | TGI (HS 578T breast) | TGI (HT29 colon) | TGI (K-562 leukemia) | TGI (LOX IMVI melanoma) | TGI (M14 melanoma) | TGI (MALME-3M melanoma) | TGI (MCF7 breast) | TGI (MDA-MB-231 breast) | TGI (MDA-MB-435 melanoma) | TGI (NCI-H226 lung) | TGI (NCI-H23 lung) | TGI (NCI-H322M lung) | TGI (NCI-H460 NSCLC) | TGI (NCI-H522 lung) | TGI (NCI/ADR-RES ovarian) | TGI (OVCAR-3 ovarian) | TGI (OVCAR-5 ovarian) | TGI (OVCAR-8 ovarian) | TGI (PC-3 prostate) | TGI (RXF 393 renal) | TGI (SF-268 CNS) | TGI (SF-539 CNS) | TGI (SK-MEL-2 melanoma) | TGI (SK-MEL-28 melanoma) | TGI (SK-MEL-5 melanoma) | TGI (SK-OV-3 ovarian) | TGI (SNB-19 CNS) | TGI (SW-620 colon) | TGI (T-47D breast) | TGI (TK-10 renal) | TGI (UACC-62 melanoma) | TGI (UO-31 renal)

O=C(NCc1ccncc1)C12CC3CC(C1)CC(c1ccc(Cl)cc1)(C3)C2
23.7 µM: TGI (OVCAR-3 ovarian)
9.73 µM: TGI (RPMI-8226 leukemia)
24.4 µM: TGI (UO-31 renal)
27.6 µM: TGI (NCI-H226 lung)
26 µM: TGI (EKVX NSCLC)
26.8 µM: TGI (SW-620 colon)
24.2 µM: TGI (HS 578T breast)
25.2 µM: TGI (HCC-2998 colon)
21.5 µM: TGI (BT-549 breast)
23 µM: TGI (T-47D breast)
31.9 µM: TGI (OVCAR-5 ovarian)
31.5 µM: TGI (NCI-H322M lung)
29.6 µM: TGI (LOX IMVI melanoma) | TGI (SK-OV-3 ovarian)
29.7 µM: TGI (HOP-62 NSCLC) | TGI (SF-539 CNS)
24.8 µM: TGI (HT29 colon)
28.3 µM: TGI (CAKI-1 renal)
30.2 µM: TGI (MDA-MB-435 melanoma)
21.8 µM: TGI (NCI/ADR-RES ovarian)
16.3 µM: TGI (K-562 leukemia)
21.2 µM: TGI (SK-MEL-5 melanoma)
26.7 µM: TGI (A549 NSCLC)
17.6 µM: TGI (CCRF-CEM leukemia)
30 µM: TGI (SNB-19 CNS)
29.1 µM: TGI (MALME-3M melanoma)
26.1 µM: TGI (COLO 205 colon)
28.6 µM: TGI (ACHN renal)
6.12 µM: TGI (HL-60(TB) leukemia)
25.7 µM: TGI (SK-MEL-2 melanoma)
23.5 µM: TGI (MCF7 breast) | TGI (MDA-MB-231 breast)
25.5 µM: TGI (A498 renal)
23.9 µM: TGI (NCI-H522 lung)
22.7 µM: TGI (HCT-116 colon)
27.4 µM: TGI (TK-10 renal)
inactive: GI50 ([…]-0 renal) 13.4 µM | GI50 (A498 renal) 12.7 µM | GI50 (A549 NSCLC) 13.6 µM | GI50 (ACHN renal) 15.1 µM | GI50 (BT-549 breast) 8.85 µM | GI50 (CAKI-1 renal) 14.9 µM | GI50 (CCRF-CEM leukemia) 6.92 µM | GI50 (COLO 205 colon) 13.2 µM | GI50 (EKVX NSCLC) 13.2 µM | GI50 (HCC-2998 colon) 11.1 µM | GI50 (HCT-116 colon) 9.03 µM | GI50 (HL-60(TB) leukemia) 2.75 µM | GI50 (HOP-62 NSCLC) 16.1 µM | GI50 (HOP-92 NSCLC) 10.8 µM | GI50 (HS 578T breast) 11.8 µM | GI50 (HT29 colon) 12.1 µM | GI50 (K-562 leukemia) 4.94 µM | GI50 (LOX IMVI melanoma) 15.9 µM | GI50 (M14 melanoma) 17.8 µM | GI50 (MALME-3M melanoma) 15.6 µM | GI50 (MCF7 breast) 10.4 µM | GI50 (MDA-MB-231 breast) 11.1 µM | GI50 (MDA-MB-435 melanoma) 16.5 µM | GI50 (NCI-H226 lung) 14.4 µM | GI50 (NCI-H23 lung) 11.9 µM | GI50 (NCI-H322M lung) 17.5 µM | GI50 (NCI-H460 NSCLC) 12.7 µM | GI50 (NCI-H522 lung) 11.5 µM | GI50 (NCI/ADR-RES ovarian) 9.62 µM | GI50 (OVCAR-3 ovarian) 10.8 µM | GI50 (OVCAR-5 ovarian) 18 µM | GI50 (OVCAR-8 ovarian) 13 µM | GI50 (PC-3 prostate) 8.88 µM | GI50 (RPMI-8226 leukemia) 3.59 µM | GI50 (RXF 393 renal) 7.13 µM | GI50 (SF-268 CNS) 14.2 µM | GI50 (SF-539 CNS) 16 µM | GI50 (SK-MEL-2 melanoma) 13 µM | GI50 (SK-MEL-28 melanoma) 17.3 µM | GI50 (SK-MEL-5 melanoma) 8.68 µM | GI50 (SK-OV-3 ovarian) 16 µM | GI50 (SNB-19 CNS) 16.3 µM | GI50 (SW-620 colon) 13.7 µM | GI50 (T-47D breast) 9.72 µM | GI50 (TK-10 renal) 14.2 µM | GI50 (UACC-62 melanoma) 14 µM | GI50 (UO-31 renal) 11.9 µM
20 µM: TGI (RXF 393 renal)
24.6 µM: TGI (NCI-H23 lung)
25.9 µM: TGI (NCI-H460 NSCLC) | TGI (OVCAR-8 ovarian)
26.3 µM: TGI (786-0 renal)
21.7 µM: TGI (PC-3 prostate)
31.1 µM: TGI (SK-MEL-28 melanoma)
27.1 µM: TGI (UACC-62 melanoma)
31.7 µM: TGI (M14 melanoma)
27.3 µM: TGI (SF-268 CNS)
23.1 µM: TGI (HOP-92 NSCLC)
